# Reference: US20150086480A1, “HETEROARYL INHIBITORS OF PDE4” (Tetra Discovery Partners, LLC, priority 2013, published 2015)
# Assays:
# [1] = molecular target: human PDE4D7 (mutation of serine 54 to aspartic acid) (Homo sapiens, UniProt Q08499, S190D); assay: Kinetic assay of PDE4 activity (cAMP hydrolysis, coupled-enzyme fluorescence); type: biochemical; conditions: inhibition of cAMP hydrolysis by human PDE4D; each concentration tested in duplicate; FIG. 1; read-out: One-half maximal inhibition of PDE4D (IC50)
# Chain of human PDE4D7 (mutation of serine 54 to aspartic acid) (Q08499 1-748 isoform Q08499-11 S129D): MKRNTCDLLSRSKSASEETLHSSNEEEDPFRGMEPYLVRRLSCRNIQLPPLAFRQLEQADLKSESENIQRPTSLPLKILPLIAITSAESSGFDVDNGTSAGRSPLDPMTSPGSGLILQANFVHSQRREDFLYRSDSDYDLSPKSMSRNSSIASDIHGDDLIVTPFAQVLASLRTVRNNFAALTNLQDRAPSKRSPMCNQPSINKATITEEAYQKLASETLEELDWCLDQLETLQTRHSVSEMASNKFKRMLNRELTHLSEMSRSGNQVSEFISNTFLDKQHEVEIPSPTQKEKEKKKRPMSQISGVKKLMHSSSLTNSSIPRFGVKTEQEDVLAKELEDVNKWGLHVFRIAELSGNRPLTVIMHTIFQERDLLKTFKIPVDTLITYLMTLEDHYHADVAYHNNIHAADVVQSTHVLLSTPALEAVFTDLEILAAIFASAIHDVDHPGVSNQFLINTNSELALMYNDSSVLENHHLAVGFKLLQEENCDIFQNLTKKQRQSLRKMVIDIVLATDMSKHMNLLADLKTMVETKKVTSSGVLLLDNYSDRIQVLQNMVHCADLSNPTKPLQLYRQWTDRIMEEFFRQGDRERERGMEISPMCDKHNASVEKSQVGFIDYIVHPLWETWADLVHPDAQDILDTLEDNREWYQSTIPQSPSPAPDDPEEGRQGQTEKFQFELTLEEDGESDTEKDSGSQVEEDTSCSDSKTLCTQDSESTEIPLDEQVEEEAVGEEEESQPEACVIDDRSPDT
# Description: PDE4D inhibition is measured by the method of Burgin et al, (2010) Design of Phosphodiesterase Type 4D (PDE4D) Allosteric Modulators for Cognition with Improved Safety. Nature Biotechnology 28:63-70. Each concentration of Example 1 was tested in duplicate (round symbols).
# PDE4 activity may be measured by any method known in the art. Here, a kinetic assay of cAMP hydrolysis by purified PDE4 was used, in which PDE4 activity was measured by coupling the formation of the PDE4 reaction product, 5′-adenosine monophosphate, to the oxidation of reduced nicotinamide adenine dinucleotide (NADH) by the use of three coupling enzymes (myokinase, pyruvate kinase and lactate dehydrogenase), which allows fluorescent determination of reaction rates. Assays are performed in 96-well plates in a total volume of 200 μl/well. Compounds are dissolved in dimethylsulfoxide (DMSO) and added to plates in a volume of 10 μl followed by addition of 165 μl of assay mix. Plates are pre-incubated at 25° C. for 15 min and the reactions are initiated by the addition of 25 μl of cAMP followed by thorough mixing. Reaction rates are measured by monitoring the decrease in fluorescence using excitation at 355 nm and emission at 460 nm for a period of 10 min in a fluorescence plate reader. Initial rates (slopes) are determined from linear portions of the progress curves. […]
# recombinant human PDE4 = conditions: read-out: reported IC50 with respect to inhibiting recombinant human PDE4; cited from earlier work
SMILES,IC50 [1],IC50 (recombinant human PDE4)
"O=[N+]([O-])c1cccc(-c2cc(Cc3ccc(F)cc3)cc3c2OCC3)c1 [Example 1, 5-[(4-fluorophenyl)methyl]-7-(3-nitrophenyl)-2,3-dihydrobenzofuran]",0.15 nM,
COc1ccc(C2CNC(=O)C2)cc1OC1CCCC1 (centres unmarked) [rolipram],,~200 nM
